In patent US9346809B2 (LEO PHARMA A/S, priority 2009, dated 2016) one finds EC50 data, which are given here for 20 molecules.

What all share (assay type): biochemical
Test [1] deals with T1, JAK1 (aa 850-1154, catalytic domain, GST-tag) (Homo sapiens, UniProt P23458).
T1 construct: JAK1 (aa 850-1154) and TYK2 (aa 871-1187) are expressed with an N-terminally fused GST-tag; GST (N); purchased Carna Biosciences, Inc; host or cells: baculovirus expression system
Description: JAK kinase assay (HTRF, phosphorylation of TK substrate-biotin), JAK1. Conditions: ATP at Km (7 μM), read-out: JAK1 kinase inhibitory activity (EC50 indicator). A digest of the protocol: (§1)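 Compound was mixed with TK substrate-biotin (1 μM final), then kinase plus ATP at its Km was added and left 20-30 min at room temperature. Detection mix with EDTA, Streptavidin-XL665 and STK Ab Cryptate stopped the reaction; after overnight dark incubation, HTRF was read and EC50 derived.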
Background: TR-FRET usually uses a lanthanide donor and a delayed reading to cut background.

Test [2] has as its target T2, JAK2 (catalytic domain, His-tag) (Homo sapiens, UniProt O60674).
T2 construct: All four purified enzymes contain only the catalytic domain; His (N); purchased Carna Biosciences, Inc; host or cells: baculovirus expression system
Description: JAK kinase assay (HTRF, phosphorylation of TK substrate-biotin), JAK2. Conditions: ATP at Km (4 μM), read-out: JAK2 kinase inhibitory activity (EC50 indicator). A digest of the protocol:
as §1

The target of test [3] is T3, JAK3 (catalytic domain, His-tag) (Homo sapiens, UniProt P52333).
T3 construct: All four purified enzymes contain only the catalytic domain; His (N); purchased Carna Biosciences, Inc; host or cells: baculovirus expression system
T3 sequence (P52333 822-1111 limits assumed): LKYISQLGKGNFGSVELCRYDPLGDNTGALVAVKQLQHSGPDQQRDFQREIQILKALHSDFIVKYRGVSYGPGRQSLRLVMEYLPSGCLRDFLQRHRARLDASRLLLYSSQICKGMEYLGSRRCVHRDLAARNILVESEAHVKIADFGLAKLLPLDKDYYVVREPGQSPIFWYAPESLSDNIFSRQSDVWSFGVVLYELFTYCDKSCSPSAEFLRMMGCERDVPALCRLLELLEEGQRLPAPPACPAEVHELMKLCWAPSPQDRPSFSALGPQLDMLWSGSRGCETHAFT
In words: JAK kinase assay (HTRF, phosphorylation of TK substrate-biotin), JAK3. Conditions: ATP at Km (2 μM), read-out: JAK3 kinase inhibitory activity (EC50 indicator). The method in brief: as §1

In test [4] the target is T4, TYK2 (aa 871-1187, catalytic domain, GST-tag) (Homo sapiens, UniProt P29597).
T4 construct: JAK1 (aa 850-1154) and TYK2 (aa 871-1187) are expressed with an N-terminally fused GST-tag; GST (N); purchased Carna Biosciences, Inc; host or cells: baculovirus expression system
T4 sequence (P29597 871-1187): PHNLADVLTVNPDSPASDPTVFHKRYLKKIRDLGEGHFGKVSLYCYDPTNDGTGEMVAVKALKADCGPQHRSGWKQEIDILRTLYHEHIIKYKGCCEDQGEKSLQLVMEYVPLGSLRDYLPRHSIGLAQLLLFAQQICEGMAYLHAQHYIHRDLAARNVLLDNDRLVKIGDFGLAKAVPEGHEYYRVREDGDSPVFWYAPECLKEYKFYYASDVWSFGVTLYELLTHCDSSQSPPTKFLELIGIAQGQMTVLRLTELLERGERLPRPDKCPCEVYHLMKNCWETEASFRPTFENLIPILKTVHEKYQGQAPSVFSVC
In words: JAK kinase assay (HTRF, phosphorylation of TK substrate-biotin), TYK2. As to conditions: ATP at Km (13 μM), read-out: TYK2 kinase inhibitory activity (EC50 indicator). The method in brief:
as §1

Read-outs that look alike come from different tables or passages of the source.

T1 sequence (P23458 850-1154): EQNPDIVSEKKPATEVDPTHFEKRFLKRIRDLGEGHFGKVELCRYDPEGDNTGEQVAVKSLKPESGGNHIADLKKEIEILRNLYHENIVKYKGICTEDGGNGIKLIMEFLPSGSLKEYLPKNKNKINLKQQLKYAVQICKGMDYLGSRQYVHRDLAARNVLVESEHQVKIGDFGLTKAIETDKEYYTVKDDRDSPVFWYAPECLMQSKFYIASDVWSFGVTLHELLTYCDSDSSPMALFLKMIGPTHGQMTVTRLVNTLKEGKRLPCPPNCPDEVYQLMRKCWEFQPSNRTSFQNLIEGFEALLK
T2 sequence (O60674 849-1124 limits assumed): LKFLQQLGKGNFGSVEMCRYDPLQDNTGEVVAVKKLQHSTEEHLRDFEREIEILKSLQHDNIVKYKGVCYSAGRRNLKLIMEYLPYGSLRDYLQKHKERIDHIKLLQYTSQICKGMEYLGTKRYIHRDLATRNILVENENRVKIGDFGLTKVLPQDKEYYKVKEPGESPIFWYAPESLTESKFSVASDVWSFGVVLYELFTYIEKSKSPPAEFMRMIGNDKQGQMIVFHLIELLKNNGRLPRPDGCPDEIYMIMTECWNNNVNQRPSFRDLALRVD

Regarding `N#CCCC(=O)N1CCN(c2ncnc3[nH]cc(Cl)c23)CC12CC2` [Example 325, 4-[7-(5-Chloro-7H-pyrrolo[2,3-d]pyrimidin-4-yl)-4,7-diaza-spiro[2.5]oct-4-yl]-4-oxo-butyronitrile], the EC50 in test [1] (HTRF assay) was over 500 nM; in test [2] (HTRF assay) it was 100 to 500 nM; in test [3] (HTRF assay) it was 100 to 500 nM; in test [4] (HTRF assay), over 500 nM.
On to `O=C(c1ccc2cc[nH]c2c1)N1[C@@H]2CC[C@@H]1CN(c1ncnc3[nH]ccc13)C2` [Example 357, (1H-Indol-6-yl)-[3-(7H-pyrrolo[2,3-d]pyrimidin-4-yl)-3,8-diaza-bicyclo[3.2.1]oct-8-yl]-methanone], for which the 50% effective concentration (EC50) in test [1] (HTRF assay) is under 100 nM; in test [2] (HTRF assay) it was under 100 nM; in test [3] (HTRF assay), under 100 nM; in test [4] (HTRF assay), 100 to 500 nM.
Take `O=C(OCc1ccccc1)N1[C@@H]2CC[C@H]1CN(c1ncnc3[nH]ccc13)C2` [Example 58, 3-(7H-Pyrrolo[2,3-d]pyrimidin-4-yl)-3,8-diazabicyclo[3.2.1]octane-8-carboxylic acid benzyl ester]: the EC50 in test [1] was under 100 nM; in test [2] it was under 100 nM; in test [3] it was 100 to 500 nM; in test [4], over 500 nM.
For `O=C(c1cccc2[nH]ccc12)N1CCN(c2ncnc3[nH]ccc23)CC12CC2` [Example 159, (1H-Indol-4-yl)-[7-(7H-pyrrolo[2,3-d]pyrimidin-4-yl)-4,7-diaza-spiro[2.5]oct-4-yl]-methanone], the EC50 is under 100 nM in test [1], under 100 nM in test [2], 100 to 500 nM in test [3] and 100 to 500 nM in test [4].
For the molecule `N#CCc1ccc(CC(=O)N2CCN(c3ncnc4[nH]cc(Cl)c34)CC23CC3)cc1` [Example 319, (4-{2-[7-(5-Chloro-7H-pyrrolo[2,3-d]pyrimidin-4-yl)-4,7-diaza-spiro[2.5]oct-4-yl]-2-oxo-ethyl}-phenyl)-acetonitrile], the EC50 in test [1] (HTRF assay) is over 500 nM; in test [2] (HTRF assay), 100 to 500 nM; in test [3] (HTRF assay), 100 to 500 nM; in test [4] (HTRF assay), over 500 nM.
Regarding `COc1cnc2[nH]ccc2c1N1CCN(C(=O)c2csc3ccccc23)C2(CC2)C1` [Example 289, Benzo[b]thiophen-3-yl-[7-(5-methoxy-1H-pyrrolo[2,3-b]pyridin-4-yl)-4,7-diaza-spiro[2.5]oct-4-yl]-methanone], the EC50 was 100 to 500 nM in test [1] (HTRF assay), 100 to 500 nM in test [2] (HTRF assay), 100 to 500 nM in test [3] (HTRF assay) and over 500 nM in test [4] (HTRF assay).
As for `O=C(c1cccc(-c2ccccc2)c1)N1[C@@H]2CC[C@@H]1CN(c1ncnc3[nH]ccc13)C2` [Example 178, Biphenyl-3-yl-[3-(7H-pyrrolo[2,3-d]pyrimidin-4-yl)-3,8-diaza-bicyclo[3.2.1]oct-8-yl]-methanone], the EC50 in test [1] was 100 to 500 nM; in test [2] it was 100 to 500 nM; in test [3] it was 100 to 500 nM; in test [4], over 500 nM.
Turning to `N#Cc1csc(C(=O)N2CCN(c3ncnc4[nH]ccc34)CC23CC3)c1` [Example 60, 5-[7-(7H-Pyrrolo[2,3-d]pyrimidin-4-yl)-4,7-diaza-spiro[2.5]octane-4-carbonyl]-thiophene-3-carbonitrile], the EC50 in test [1], in test [2], in test [3] and in test [4] was under 100 nM each time.
For `O=C(CC(F)(F)F)N1[C@@H]2CC[C@H]1CN(c1ncnc3[nH]ccc13)C2` [Example 40, 3,3,3-Trifluoro-1-[3-(7H-pyrrolo[2,3-d]pyrimidin-4-yl)-3,8-diaza-bicyclo[3.2.1]oct-8-yl]propan-1-one], the EC50 in test [1] was 100 to 500 nM; in test [2], 100 to 500 nM; in test [3] it was over 500 nM; in test [4] it was over 500 nM.
`O=C(c1cccc(C(F)(F)F)c1)N1CCN(c2ncnc3[nH]ccc23)CC12CC2` [Example 20, [7-(7H-Pyrrolo[2,3-d]pyrimidin-4-yl)-4,7-diazaspiro[2.5]oct-4-yl]-(3-trifluoromethylphenyl)methanone]: the EC50 in test [1] is under 100 nM; in test [2] it was under 100 nM; in test [3], 100 to 500 nM; in test [4], 100 to 500 nM.
In the case of `N#Cc1ccc(C(=O)N2CCN(c3nc(N)nc4[nH]ccc34)CC23CC3)cc1` [Example 303, 4-[7-(2-Amino-7H-pyrrolo[2,3-d]pyrimidin-4-yl)-4,7-diaza-spiro[2.5]octane-4-carbonyl]-benzonitrile], the EC50 in test [1] (HTRF assay) is under 100 nM; in test [2] (HTRF assay), under 100 nM; in test [3] (HTRF assay), 100 to 500 nM; in test [4] (HTRF assay) it was over 500 nM.
In the case of `O=C([C@H]1CCCc2ccccc21)N1CCN(c2ncnc3[nH]ccc23)CC12CC2` [Example 416, [7-(7H-Pyrrolo[2,3-d]pyrimidin-4-yl)-4,7-diaza-spiro[2.5]oct-4-yl]-(1,2,3,4-tetrahydro-naphthalen-1-yl)-methanone], the EC50 was 100 to 500 nM in test [1] (HTRF assay), under 100 nM in test [2] (HTRF assay), 100 to 500 nM in test [3] (HTRF assay) and over 500 nM in test [4] (HTRF assay).
Turning to `O=C(c1ccccn1)N1CCN(c2ncnc3[nH]ccc23)CC12CC2` [Example 2, Pyridin-2-yl-[7-(7H-pyrrolo[2,3-d]pyrimidin-4-yl)-4,7-diazaspiro[2.5]oct-4-yl]methanone], the EC50 is under 100 nM in test [1], under 100 nM in test [2], 100 to 500 nM in test [3] and 100 to 500 nM in test [4].
`N#CC1(C(=O)N2CCN(c3ncnc4[nH]ccc34)CC23CC3)CCCC1` [Example 114, 1-[7-(7H-Pyrrolo[2,3-d]pyrimidin-4-yl)-4,7-diaza-spiro[2.5]octane-4-carbonyl]-cyclopentanecarbonitrile]: the EC50 is 100 to 500 nM in test [1], under 100 nM in test [2], 100 to 500 nM in test [3] and over 500 nM in test [4].
On to `CN(C)S(=O)(=O)c1ccc(C(=O)N2CCN(c3ncnc4[nH]ccc34)CC23CC3)cc1` [Example 189, N,N-Dimethyl-4-[7-(7H-pyrrolo[2,3-d]pyrimidin-4-yl)-4,7-diaza-spiro[2.5]octane-4-carbonyl]-benzenesulfonamide], for which the EC50 in test [1] is under 100 nM; in test [2] it was under 100 nM; in test [3] it was 100 to 500 nM; in test [4] it was 100 to 500 nM.
As for `O=C(Cc1ccncc1)N1[C@@H]2CC[C@@H]1CN(c1ncnc3[nH]ccc13)C2` [Example 171, 2-Pyridin-4-yl-1-[3-(7H-pyrrolo[2,3-d]pyrimidin-4-yl)-3,8-diaza-bicyclo[3.2.1]oct-8-yl]-ethanone], the 50% effective concentration (EC50) in test [1] was 100 to 500 nM; in test [2], 100 to 500 nM; in test [3] it was over 500 nM; in test [4], over 500 nM.
As to `N#Cc1ccccc1C(=O)N1CCN(c2ncnc3[nH]ccc23)CC12CC2` [Example 299, 2-[7-(7H-Pyrrolo[2,3-d]pyrimidin-4-yl)-4,7-diaza-spiro[2.5]octane-4-carbonyl]-benzonitrile], the EC50 is under 100 nM in test [1] (HTRF assay), under 100 nM in test [2] (HTRF assay), 100 to 500 nM in test [3] (HTRF assay) and 100 to 500 nM in test [4] (HTRF assay).
As to `COCCNS(=O)(=O)c1ccc(C(=O)N2CCN(c3ncnc4[nH]ccc34)CC23CC3)cc1` [Example 396, N-(2-Methoxy-ethyl)-4-[7-(7H-pyrrolo[2,3-d]pyrimidin-4-yl)-4,7-diaza-spiro[2.5]octane-4-carbonyl]-benzenesulfonamide], the EC50 in test [1] (HTRF assay) was under 100 nM; in test [2] (HTRF assay), under 100 nM; in test [3] (HTRF assay), under 100 nM; in test [4] (HTRF assay), 100 to 500 nM.
For `CS(=O)(=O)c1cccc(C(=O)N2C3CCC2CN(c2ncnc4[nH]ccc24)C3)c1` [Example 135, (3-Methanesulfonyl-phenyl)-[3-(7H-pyrrolo[2,3-d]pyrimidin-4-yl)-3,8-diaza-bicyclo[3.2.1]oct-8-yl]-methanone], the EC50 in test [1] was under 100 nM; in test [2], under 100 nM; in test [3], 100 to 500 nM; in test [4] it was over 500 nM.
`CC(=O)N1CCC(C(=O)N2CCN(c3ncnc4[nH]ccc34)CC23CC3)CC1` [Example 43, 1-{4-[7-(7H-Pyrrolo[2,3-d]pyrimidin-4-yl)-4,7-diazaspiro[2.5]octane-4-carbonyl]piperidin-1-yl}ethanone]: the EC50 is 100 to 500 nM in test [1], 100 to 500 nM in test [2], 100 to 500 nM in test [3] and over 500 nM in test [4].

The EC50 is the concentration at which the effect is half-maximal.
